Data: US20120264827A1, “SULFANYLAMIDE DERIVATIVES, USES THEREOF AND COMPOSITIONS COMPRISING THEM” (YISSUM RESEARCH DEVELOPMENT COMPANY OF THE HEBREW …, priority 2009, published 2012)
Like-named read-outs stand apart in the source and are kept apart here.

Columns and labels:
[1] = tested on: maximal electroshock seizure (MES); conditions: rats, cited from earlier work; for PI (TD50/ED50) in rat MES test: reference or literature compound
[2] = tested on: maximal electroshock seizure (MES); conditions: cited from earlier work
[3] = tested on: subcutaneous metrazol (pentylenetetrazol) seizure; test: animal or person; conditions: Rattus norvegicus, po, read-out: scMet ED50
Protocol: (§1) The evaluation of the anticonvulsant activity in the maximal electroshock seizure test (MES) and subcutaneous metrazol seizure threshold test (scMet) and the determination of neurotoxicity in the rotorod test, positional sense test, and others were performed according to the protocols described in White, H. S., Woodhead J. H., Wilcox K. S., Stables J. P., Kupferberg H. J., Wolf H. H., Discovery and Preclinical Development of Antiepileptic Drugs; 5th ed.; Lippincott Williams &Wilkins: New york, 2002; 36-48.
(§2) The tested compounds were suspended in 0.5% methylcellulose and administered (a) intraperitioneally (ip) to adult male CF no. 1 albino mice (18-25 g) in volume of 0.01 mL/g body weight and (b) orally to adult male Sprague-Dawley albino rats (100-150 g) in volume of 0.04 mL per 10 g of body weight. The pentylenetetrazol solution at convulsing dose was prepared by sufficient dissolution of pentylenetetrazol in 0.9% saline to make 0.85% solution for administration to mice and a 2.82% solution for administration to rats.
(§3) The TD50 was determined by varying the dose of the tested compounds until four points were established between the dose level that induced no signs of minimal motor impairment in any of the animals and the dose at which all the animals were considered impaired. […] The PIs were calculated by dividing the TD50 by the ED50.

[4] = tested on: maximal electroshock seizure (MES); test: Maximal electroshock seizure test (MES), mice, intraperitoneal; type: in vivo; conditions: ip;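 also: adult male CF no. 1 albino mice of 18–25 g, given compound intraperitoneally as a 0.5% methylcellulose suspension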
[5] = tested on: subcutaneous metrazol (pentylenetetrazol) seizure; conditions: male, Sprague-Dawley, rat, in vivo, po
Protocol: as §1, §2, §3

[6] = in vivo; conditions: male, Sprague-Dawley, rat, po
Protocol: (§4) The tested compounds were suspended in 0.5% methylcellulose and administered (a) intraperitioneally (ip) to adult male CF no. 1 albino mice (18-25 g) in volume of 0.01 mL/g body weight and (b) orally to adult male Sprague-Dawley albino rats (100-150 g) in volume of 0.04 mL per 10 g of body weight.
as §3

[7] = tested on: maximal electroshock seizure (MES); test: Maximal electroshock seizure test (MES), rats, oral; conditions: Rattus norvegicus, po; for responders at 30 mg/kg: read-out: Anti-MES activity (number of animals protected/number of animals tested); for ED50: read-out: MES ED50, rats dosed orally, interval in parentheses = 95% confidence interval;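 as to all read-outs here: adult male Sprague-Dawley rats received test compounds by mouth as a suspension in 0.5% methylcellulose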
Protocol: as §4, §3

[8] = tested on: maximal electroshock seizure (MES); conditions: male, Sprague-Dawley, rat, in vivo, po
Protocol: as §4, §3

[9] = tested on: subcutaneous metrazol (pentylenetetrazol) seizure; test: Subcutaneous metrazol seizure threshold test (scMet), mice, intraperitoneal; type: in vivo; conditions: ip;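 also: adult male CF no. 1 albino mice weighing 18-25 g, dosed intraperitoneally with compounds suspended in 0.5% methylcellulose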
[10] = tested on: subcutaneous metrazol (pentylenetetrazol) seizure; conditions: reference AED; species not stated; cited from earlier work
[11] = tested on: rats; test: Neurotoxicity, median neurotoxic dose (TD50), rats, oral; conditions: rats dosed orally
Protocol: as §4, §3

[12] = 30 mg/kg, 0.5 h after administration
[13] = 30 mg/kg, 4 h after administration
[14] = 100 mg/kg, 0.5 h after administration
[15] = 100 mg/kg, 4 h after administration
[16] = 300 mg/kg, 0.5 h after administration
[17] = 300 mg/kg, 4 h after administration

In the case of `CC1(C)C(C(=O)Nc2nnc(S(N)(=O)=O)s2)C1(C)C` [5-(2,2,3,3-tetramethylcyclopropanecarboxamide)-1,3,4-thiamidazole-2-sulfonamide], the “PI (TD50/ED50) in rat MES test” value [1] is listed as “above 50”.

For `CCCC(CCC)C(=O)Nc1ccc(S(N)(=O)=O)cc1` [Compound 6, 4-(valproylamido)-benzenesulfonamide], the “mice-MES test ED50” value ([2]; mice, previous studies) is listed as 21 mg/kg.

For `CCCC(C(=O)Nc1ccc(S(N)(=O)=O)cc1)C(C)C` (centres unmarked) [Compound 18, 2-Isopropyl-N-(4-sulfamoyl-phenyl)-pentanamide], the ED50 [3] was greater than 250 mg/kg, the “MES (number of animals protected/number of animals tested)” value [4, 12] was 0/1 and the “MES (number of animals protected/number of animals tested)” value [4, 13] was 0/1. The “MES (number of animals protected/number of animals tested)” value [4, 14] was 0/3, the “MES (number of animals protected/number of animals tested)” value [4, 15] was 2/3 and the “MES (number of animals protected/number of animals tested)” value [4, 16] was 1/1. The “MES (number of animals protected/number of animals tested)” value [4, 17] was 1/1, the “PI, protective index (PI = TD50/ED50) in the scMet test” value [5] was greater than 2 and the TD50 [6] was greater than 500 mg/kg. For the same molecule, the responders at 30 mg/kg ([7]; 0.5 h) was 0%, the responders at 30 mg/kg ([7]; 1 h) was 100% and the responders at 30 mg/kg ([7]; 2 h) was 75%. The responders at 30 mg/kg ([7]; 4 h) was 50%, the responders at 30 mg/kg ([7]; […]) was 0% and the ED50 [7] was 41.5 mg/kg. The “PI, protective index (PI = TD50/ED50) in the MES test” value [8] was greater than 12.0, the melting point was 217 to 219 °C and the “scMet (number of animals protected/number of animals tested)” value [9, 12] was 0/1 0/1 0/1. For the same molecule, the “scMet (number of animals protected/number of animals tested)” value [9, 13] was 0/1 0/1 0/1, the “scMet (number of animals protected/number of animals tested)” value [9, 14] was 0/1 0/1 0/1 and the “scMet (number of animals protected/number of animals tested)” value [9, 15] was 0/1 0/1 0/1. For the same molecule, the “scMet (number of animals protected/number of animals tested)” value [9, 16] was 0/1 0/1 0/1 and the “scMet (number of animals protected/number of animals tested)” value [9, 17] was 0/1 0/1 0/1.

In the case of `CC1(C)C(C(=O)Nc2ccc(S(N)(=O)=O)cc2)C1(C)C` [Compound 7, 4-(2,2,3,3-tetramethylcyclopropanecarboxamido)-benzenesulfon amide], the “MES test ED50” value ([2]; MES test in mice and rats, previously synthesized by the inventors) is listed as 26 mg/kg.

For `NS(=O)(=O)Cc1noc2ccccc12` [Zonisamide], the “anticonvulsant activity in the scMet test” value [10] is given as “does not display anticonvulsant activity”, the “Rat-MES test ED50” value ([1]; reference AED) is given as 21 mg/kg and the “PI (TD50/ED50) in rat MES test” value [1] is given as 9.1.

For `CCCC(CCC)C(=O)O` [VPA, 2-propylpentanoic acid], the “TD50 (neurotoxicity)” value [11] was 784 mg/kg.

For `CCCCC(CC)C(=O)Nc1ccc(S(N)(=O)=O)cc1` (centres unmarked) [Compound 25, 2-Ethyl-N-(4-sulfamoyl-phenyl)-hexanamide], the ED50 [3] was greater than 250 mg/kg, the “MES (number of animals protected/number of animals tested)” value [4, 12] was 0/1 and the “MES (number of animals protected/number of animals tested)” value [4, 13] was 0/1. For the same molecule, the “MES (number of animals protected/number of animals tested)” value [4, 14] was 3/3, the “MES (number of animals protected/number of animals tested)” value [4, 15] was 3/3 and the “MES (number of animals protected/number of animals tested)” value [4, 16] was 1/1. The “MES (number of animals protected/number of animals tested)” value [4, 17] was 1/1, the “PI, protective index (PI = TD50/ED50) in the scMet test” value [5] was greater than 2 and the TD50 [6] was greater than 500 mg/kg. For the same molecule, the responders at 30 mg/kg ([7]; 0.5 h) was 0%, the responders at 30 mg/kg ([7]; 1 h) was 100% and the responders at 30 mg/kg ([7]; 2 h) was 75%. For the same molecule, the responders at 30 mg/kg ([7]; 4 h) was 100%, the responders at 30 mg/kg ([7]; […]) was 0% and the ED50 [7] was 23.9 mg/kg. For the same molecule, the “PI, protective index (PI = TD50/ED50) in the MES test” value [8] was greater than 21.0, the melting point was 188 to 190 °C and the “scMet (number of animals protected/number of animals tested)” value [9, 12] was 0/1. For the same molecule, the “scMet (number of animals protected/number of animals tested)” value [9, 13] was 0/1 0/1 0/1, the “scMet (number of animals protected/number of animals tested)” value [9, 14] was 2/5 and the “scMet (number of animals protected/number of animals tested)” value [9, 15] was 0/1 0/1 0/1. For the same molecule, the “scMet (number of animals protected/number of animals tested)” value [9, 16] was 3/5 and the “scMet (number of animals protected/number of animals tested)” value [9, 17] was 0/1 0/1 0/1.
